{
  "source": "paper PMC10805311",
  "about": "“Pseudomonas aeruginosa two-component system CprRS regulates HigBA expression and bacterial cytotoxicity in response to LL-37 stress” (PLOS Pathogens, 2024)",
  "key": {"WT P. aeruginosa": {"tested_on": "WT P. aeruginosa", "assay": "microbe, parasite or virus in culture", "format": "cell-based", "settings": "37°C; for MIC: without LL-37, LB medium, OD600 = 0.1, 24 h; for MIC (+ LL-37): antibiotic + LL-37 (LL-37 pretreatment), LB medium, 24 h", "experimental": "(§1) The initial concentrations of meropenem, cephalosporin, tetracycline, gentamicin, ciprofloxacin, polymyxin B, and colistin are: 0.1 mg/mL, 0.02 mg/mL, 0.5 mg/mL, 0.16 mg/mL, 1 mg/mL, 0.1 mg/mL, and 0.1 mg/mL, all the antibiotics were 10 × gradient dilution with sterile PBS buffer. Overnight bacterial cultures of WT P. aeruginosa and mutants were re-inoculated into fresh LB medium supplemented at OD600 = 0.1, then 90 μL cultures and 10 μL antibiotic dilutions were added in a 96-well microtiter dish for 24 h at 37°C."}, "[1]": {"tested_on": "full-length CprS (CprSFL)", "assay": "Microscale thermophoresis (MST), full-length CprS", "format": "binding, P. aeruginosa", "settings": "100 nM CprS, cationic peptides from 500 μM, 25°C 30 min", "experimental": "The E. coli BL21 (DE3) strains harboring pET22b-cprS and pET22b-cprR were cultured at 37°C in LB medium and suppled with 0.4 mM IPTG as the OD600 reached to 0.8. The cultures were incubated at 16°C for an additional 14 h and the cells were collected and resuspended in buffer A (20 mM tris-HCl (pH 8.0), 150 mM NaCl). The cells were lysed by ultrasound and centrifuged at 15, 000 rpm for 20 min at 4°C. Then the supernatant was applied to Ni-agarose resins and eluted with buffer containing 300 mM imidazole. As for full-length CprS, the supernatant needed to be extracted by 2% ELUGENT Detergent and flow 0.02% DDM for elution. The target proteins were further purified via AKTA purifier using buffer A and concentrated to 12 mg/mL.\nThe 100 nM CprS with His-tag was labeled with Monolith His-Tag Labelling Kit RED-tris-NTA 2nd Generation Kit and the cationic peptides used in this work were diluted with PBST buffer gradient from 0.5 mM [34]. The proteins and cationic peptide dilutions were mixed and incubated at 25°C for 30 min and detected on a Monolith NT.115 instrument. The data were analyzed by NanoTemper Analysis 1.2.20 software."}, "cprS": {"tested_on": "cprS", "assay": "qRT-PCR, cprS transcription", "format": "cell-based, P. aeruginosa", "settings": "oprL as normalizer", "experimental": "(§2) Overnight bacterial cultures were subcultured in fresh LB medium to OD600 0.8 and the cells were collected by using Trizol. The cDNA was synthesized by using PrimeScript RT reagent Kit. 2 × SYBR qPCR Master Mix was used to perform qPCR assays. The reaction step was 2 × SYBR qPCR Master Mix (Without ROX) 10 μL, upstream Primer (10 μM) 0.4 μL, downstream Primer (10 μM) 0.4 μL, template cDNA 1 μg and ddH2O up to 20 μL. The qPCR procedure was set as: stage 1 (95°C 30 s, repeat once), stage 2 (95°C 10 s, 60°C 30 s, repeat for 40 times) and stage 3 (95°C 15 s, 60°C 1 min, 95°C 15 s, repeat 1 time). The oprL gene was used as a normalizer. The same method was used for mammalian cells, and 18 sRNA served as a normalizer."}, "cprR": {"tested_on": "cprR", "assay": "qRT-PCR, cprR transcription", "format": "cell-based, P. aeruginosa", "settings": "oprL as normalizer", "experimental": "as §2"}, "P. aeruginosa ΔcprR": {"tested_on": "P. aeruginosa ΔcprR", "format": "cell-based", "settings": "37°C; for MIC (+ LL-37): antibiotic + LL-37 (LL-37 pretreatment), LB medium, 24 h; for MIC: without LL-37, LB medium, OD600 = 0.1, 24 h", "experimental": "as §1"}, "P. aeruginosa ΔcprS": {"tested_on": "P. aeruginosa ΔcprS", "format": "cell-based", "settings": "37°C; for MIC (+ LL-37): antibiotic + LL-37 (LL-37 pretreatment), LB medium, 24 h; for MIC: without LL-37, LB medium, OD600 = 0.1, 24 h", "experimental": "as §1"}, "[2]": {"tested_on": "P. aeruginosa PAO1 strain H103", "settings": "cited from earlier work", "text": "TCSs represent the most common signal-transduction cascades in bacteria, sensing external cues such as ions, peptides, and compounds [46, 47]. Canonical TCSs comprise a transmembrane sensor histidine kinase (HK) and an intracellular response regulator (RR). Upon binding to specific stimuli, the HK undergoes autophosphorylation and transfers the phosphoryl group to the RR, activating its transcription regulation ability to influence bacterial behavior. To date, over 60 TCSs have been identified in the P. aeruginosa PAO1 genome, they have been recognized as crucial players in various b ..."}, "[3]": {"biological_target": "CprS periplasmic sensor domain CprSSD (residues 28-163) (Pseudomonas aeruginosa)", "assay": "MST; 100 nM His-tagged CprS labelled with Monolith His-Tag Labelling Kit RED-tris-NTA 2nd Generation; cationic peptides in 16 doubling dilutions from 500 uM (0.5 mM) in PBST; incubated at 25 C for 30 min; Monolith NT.115; repeated three times"}, "[4]": {"biological_target": "full-length CprS (CprSFL), sensor histidine kinase of the two-component system CprRS (Pseudomonas aeruginosa)", "assay": "MST; 100 nM His-tagged CprS labelled with Monolith His-Tag Labelling Kit RED-tris-NTA 2nd Generation; cationic peptides in 16 doubling dilutions from 500 uM (0.5 mM) in PBST; incubated at 25 C for 30 min; Monolith NT.115; repeated three times"}, "CarSR system": {"tested_on": "CarSR system", "settings": "Vibrio cholerae; cited from earlier work", "text": "In the field of microbiology and immunology, the interaction between host antimicrobial peptides and pathogenic bacteria has been a subject of extensive research. The success of bacterial infections depends on a delicate balance of signals exchanged between microbes and hosts. Cationic antimicrobial peptides, including defensins such as α-defensins, β-defensins, and cathelicidin LL-37, are crucial components of innate host defense against bacterial infections. Numerous studies have shown that LL-37 acts as a shield between the host and the external environment, preventing bact ..."}, "[5]": {"settings": "Pseudomonas aeruginosa, read-out: MIC"}},
  "note": "Read-outs that look alike come from different tables or passages of the source. Residues, ends and D or L forms follow the SMILES beside them. No end group written: not given here.",
  "data": [
    {"molecule": "O=C(O)c1cn(C2CC2)c2cc(N3CCNCC3)c(F)cc2c1=O", "note": "[CIP, ciprofloxacin]", "values": [
      {"measurement": "MIC", "setting": "WT P. aeruginosa; [5]", "value": 2, "unit": "µg/mL"}
    ]},
    {"molecule": "CNC(C)C1CCC(N)C(OC2C(N)CC(N)C(OC3OCC(C)(O)C(NC)C3O)C2O)O1", "note": "(stereo not shown) [GM, Gentamicin]", "values": [
      {"measurement": "MIC", "setting": "WT P. aeruginosa; [5]", "value": 12.5, "unit": "µg/mL"}
    ]},
    {"molecule": "C[C@@H](O)[C@H]1C(=O)N2C(C(=O)O)=C(S[C@@H]3CN[C@H](C(=O)N(C)C)C3)[C@H](C)[C@H]12", "note": "[MEM, Meropenem]", "values": [
      {"measurement": "MIC", "setting": "WT P. aeruginosa; [5]", "value": 10, "unit": "µg/mL"}
    ]},
    {"molecule": "CC[C@H](C)CCCCC(=O)N[C@@H](CCN)C(=O)N[C@H](C(=O)N[C@@H](CCN)C(=O)N[C@H]1CCNC(=O)[C@H]([C@@H](C)O)NC(=O)[C@H](CCN)NC(=O)[C@H](CCN)NC(=O)[C@H](CC(C)C)NC(=O)[C@@H](Cc2ccccc2)NC(=O)[C@H](CCN)NC1=O)[C@@H](C)O", "note": "[Polymyxin B] (HELM PEPTIDE1{[CC[C@H](C)CCCCC(=O)[*:2]].[Dab].T.[Dab].[Dab].[Dab].[dF].L.[Dab].[Dab].T}$PEPTIDE1,PEPTIDE1,5:R3-11:R2$$$V2.0; N-terminus assumed; bridges inferred)", "values": [
      {"measurement": "binding to CprS", "setting": "[1]", "value": "no binding was observed"},
      {"measurement": "expression of cprS under Polymyxin B treatment", "setting": "cprS", "value": "no significant change in expression was observed"},
      {"measurement": "expression of cprR under Polymyxin B treatment", "setting": "cprR", "value": "no significant change in expression was observed"},
      {"measurement": "MIC (+ LL-37)", "setting": "WT P. aeruginosa", "value": 64, "unit": "µg/mL"},
      {"measurement": "MIC", "setting": "WT P. aeruginosa", "value": 4, "unit": "µg/mL"},
      {"measurement": "MIC (+ LL-37)", "setting": "P. aeruginosa ΔcprR", "value": 1, "unit": "µg/mL"},
      {"measurement": "MIC", "setting": "P. aeruginosa ΔcprR", "value": 2, "unit": "µg/mL"},
      {"measurement": "MIC (+ LL-37)", "setting": "P. aeruginosa ΔcprS", "value": 1, "unit": "µg/mL"},
      {"measurement": "MIC", "setting": "P. aeruginosa ΔcprS", "value": 2, "unit": "µg/mL"},
      {"measurement": "CprRS-mediated adaptive resistance", "setting": "[2]", "value": "adaptive resistance"}
    ]},
    {"molecule": "CN(C)[C@@H]1C(O)=C(C(N)=O)C(=O)[C@@]2(O)C(O)=C3C(=O)c4c(O)cccc4[C@@](C)(O)[C@H]3C[C@@H]12", "note": "[TE, Tetracycline]", "values": [
      {"measurement": "MIC", "setting": "WT P. aeruginosa; [5]", "value": 3.2, "unit": "µg/mL"}
    ]},
    {"molecule": "CC[C@H](C)CCCCC(=O)N[C@@H](CCN)C(=O)N[C@H](C(=O)N[C@@H](CCN)C(=O)N[C@H]1CCNC(=O)[C@H]([C@@H](C)O)NC(=O)[C@H](CCN)NC(=O)[C@H](CCN)NC(=O)[C@H](CC(C)C)NC(=O)[C@@H](CC(C)C)NC(=O)[C@H](CCN)NC1=O)[C@@H](C)O", "note": "[colistin, Colistin] (HELM PEPTIDE1{[CC[C@H](C)CCCCC(=O)[*:2]].[Dab].T.[Dab].[Dab].[Dab].[dL].L.[Dab].[Dab].T}$PEPTIDE1,PEPTIDE1,5:R3-11:R2$$$V2.0; N-terminus assumed; bridges inferred)", "values": [
      {"measurement": "binding to CprS", "setting": "[1]", "value": "no binding was observed"},
      {"measurement": "MIC (+ LL-37)", "setting": "WT P. aeruginosa", "value": 64, "unit": "µg/mL"},
      {"measurement": "MIC", "setting": "WT P. aeruginosa", "value": 4, "unit": "µg/mL"},
      {"measurement": "MIC (+ LL-37)", "setting": "P. aeruginosa ΔcprR", "value": 1, "unit": "µg/mL"},
      {"measurement": "MIC", "setting": "P. aeruginosa ΔcprR", "value": 1, "unit": "µg/mL"},
      {"measurement": "MIC (+ LL-37)", "setting": "P. aeruginosa ΔcprS", "value": 0.5, "unit": "µg/mL"},
      {"measurement": "MIC", "setting": "P. aeruginosa ΔcprS", "value": 1, "unit": "µg/mL"}
    ]},
    {"molecule": "human host defense peptide LL-37", "values": [
      {"measurement": "Kd", "setting": "[3]", "value": 5.34, "unit": "µM"},
      {"measurement": "Kd", "setting": "[4]", "value": 1410, "unit": "nM"}
    ]},
    {"molecule": "indolicidin: cationic peptide antibiotic (ILPWKWPWWPWRR; ends and bridges not checked; UniProt P33046 131-143, looked up)", "values": [
      {"measurement": "CprRS-mediated adaptive resistance", "setting": "[2]", "value": "adaptive resistance"}
    ]},
    {"molecule": "α-defensin 5: human enteric α-defensin 5 (peptide, UniProt Q01523 20-94, looked up, Defensin-5) Defensin alpha 5: ESLQERADEATTQKQSGEDNQDLAISFAGNGLSALRTSGSQARATCYCRTGRCATRESLSGVCEISGRLYRLCCR", "values": [
      {"measurement": "sensing by CarSR", "setting": "CarSR system", "value": "sense human enteric α-defensin 5 and LL-37 to promote bacterial pathogenicity"}
    ]}
  ]
}
